ChEMBL document CHEMBL5365498, “Regulation of Eukaryotic Translation Initiation Factor 4E as a Potential Anticancer Strategy” (J Med Chem, 2023)

Legend:
[1] = Anticancer activity against Cervical carcinoma cell line (unknown origin) assessed as cell growth inhibition; assay type: functional, cell-based
Melanoma tumor cell line = test: Anticancer activity against Melanoma tumor cell line (unknown origin) assessed as cell growth inhibition; assay type: functional, cell-based
[2] = Anticancer activity against Breast carcinoma cell (unknown origin) assessed as cell growth inhibition; assay type: functional, cell-based
Lung cancer cell line = test: Anticancer activity against Lung cancer cell line (unknown origin) assessed as cell growth inhibition; assay type: functional, cell-based
[3] = target: Serine/threonine-protein kinase mTOR (Homo sapiens, UniProt P42345); test: Inhibition of human mTOR (1360 to 2549 residues) measured after 2 hrs in presence of ATP by LANCE Ultra kinase assay
MCF7 = test: Anticancer activity against human MCF7 cells assessed as cell growth inhibition measured after 72 hrs by CCK-8 assay; assay type: functional, cell-based; conditions: MCF7, 72 h
A549 = test: Anticancer activity against human A549 cells assessed as cell growth inhibition measured after 72 hrs by CCK-8 assay; assay type: functional, cell-based; conditions: A549, 72 h

Work on Oc1cccc(-c2nc(N3CCOCC3)c3oc4ncccc4c3n2)c1 [PI-103] yielded an IC50 [1] of 20 nM, an IC50 (Melanoma tumor cell line) of 20 nM and an IC50 [2] of 20 nM. It also gave an IC50 (Lung cancer cell line) of 20 nM.
CNC(=O)Nc1ccc(-c2nc(N3CCOCC3)nc3c2C=NC3C2CCOCC2)cc1 (configuration not stated) showed an IC50 [3] of 23.2 nM, an IC50 (MCF7) of 600 nM and an IC50 (A549) of 230 nM.
